Source: patent US9593146B2, “CD44v6-derived peptides for treating metastasizing cancer” (AMCURE GMBH, priority 2012, dated 2017)
Residues, ends and D or L forms follow the SMILES beside them. No end group written: not given here. *: point of attachment. PEG2000 = polyethylene glycol with a molecular weight of 2000 Da; DOTA = O=C(O)CN1CCN(CC(=O)O)CCN(CC(=O)*)CCN(CC(=O)O)CC1; Myristoyl = CCCCCCCCCCCCCC(=O)*

How the values were obtained:
[1] = system: L3.6pl cells; assay: Human orthotopic model of pancreatic cancer, L3.6pl cells in nude mice; type: in vivo; settings: for reduction of tumor size, ranking (side-by-side comparison): 20 μg per injection three times per week for 3 weeks (FIG. 23A); for variability in the individual tumor size within the group: 20 μg per injection three times per week for 3 weeks (FIG. 23B); for metastatic spreading to the liver (side-by-side comparison): 20 μg per injection three times per week for 3 weeks (FIG. 24); for tumor growth compared to the control peptide (side-by-side comparison): 20 μg per injection three times per week for 3 weeks, 5 animals per group
Experimental: In the case of the human orthotopic model, L3.6pl pancreatic carcinoma cells (passage 24-26) were suspended in Hank's balanced salt solution (Invitrogen, Karlsruhe, Germany) after trypsinization. The cells were injected orthotopically in the pancreas of male nude mice as described (Bruns C J et al. (1999) Neoplasia 1(1):50-62). Two groups of 15 mice each were injected i.p. 7 days later with either the human v6 peptide respectively rat control peptide (20 μg). For all experiments described and depicted herein either the rat 14mer control peptide or the human 14mer peptide were used. All experiments were then repeated with the rat 5mer control peptide or the human 5mer peptide (N-R-W-H-E, SEQ ID NO: 2). […] The injection was repeated three times per week for 21 days. Two days after the last treatment the animals were killed. […]
A comparison of different CD44v6 peptide derivatives was performed in animals bearing a orthotopic L3.6pl tumor. 10 groups of 5 animals each received a dose of 20 μg peptide per injection three times per week for 3 weeks with the compounds listed in Table 4. Three weeks after starting the treatment the animals were sacrificed and analyzed for macroscopic metastases and tumor volume.

[2] = system: Met and ERK; assay: HGF induced activation of Met and Erk in BSp73ASs6 cells (Western blot); type: cell-based, rat
Experimental: Serum-starved cells (24 hours) were induced with the growth factor HGF (10 ng/mL) at 37° C. for 5 minutes. Where indicated, the cells were treated with peptides (100 ng/ml) prior to induction at 37° C. for 10 minutes (100 ng/mL CD44v6 peptide or control peptide). Following the induction with HGF, cells were washed with ice-cold phosphate-buffered saline (PBS). To detect activated Met and Erk, cells were lysed in sodium dodecyl sulfate (SDS)-sample buffer containing 100 mM dithiothreitol (DTT), boiled and subjected to western blot analysis using antibodies against phospho-Met and ERK. The loading controls were performed on the same blot after stripping (62.5 mM Tris, pH 6.8, 2% SDS, 0.8% DTT) by probing with the Met respectively ERK antibody. Blots were stained using the enhanced chemiluminescence system (Thermo Fisher Scientific, Schwerte, Germany). Bands in western blot analysis were quantified with the program Image J (National Institutes of Health).
Rat pancreatic cancer cells BSp73ASs6 (also designated Ass6) were incubated for 10 min at 37° C. with either ctrl-peptides (SEQ ID No.: 15), non-pegylated v6-peptides (SEQ ID No.: 11) and increasing concentrations of the pegylated peptides, namely PEG-rat control peptide and PEG-rat CD44v6 peptide, before induction with HGF (10 ng/ml; 5 min at 37° C.).
Activation of ERK and Met was determined by standard SDS and Western Blotting techniques using a phospho-Met and phospho-Erk specific antibody (phospho-Met clone D16 cell signaling, phospho-Erk p42/44 cell signaling)
ASs6 cells, serum starved for 24 h, were induced with HGF (10 ng/ml) at 37° C. for 5 min. Where indicated, the cells were treated with PEGylated or non-PEGylated peptides before induction at 37° C. for 10 min (150 nM). Cells were washed with phosphate-buffered saline (PBS) and lysed in boiling sodium dodecyl sulfate (SDS)-sample buffer containing 100 mM dithiothreitol (DTT). Subsequently, lysates were subjected to Western blot analysis using antibodies against phosphorylated Mek and Erk (Cell signaling). The Mek and Erk loading control were performed on the same blot, stripped (62.5 mM Tris pH 6.8, 2% SDS, 0.8% DTT) and probed with the Mek and Erk antibodies. Blots were stained using the enhanced chemiluminescence system (Thermo Fisher Scientific).

[3] = system: HT29 cells; assay: HGF induced scattering of HT29 cells; type: cell-based, human; settings: for HGF induced clustering / scattering of HT29 cells (FIG. 11): HGF 10 ng/ml, peptide pre-incubation (Example 2)
Experimental: FIG. 17: The human CD44 v6 specific peptides block HGF induced cell scattering and invasion into matrigel. Scattering of HT29 cells was determined in 24-well plates. First, 4.5×10^4 cells were seeded at 37° C.; after 24 h the cells were serum starved for additional 24 h. the cells were either left untreated (control) or later treated with HGF (50 ng/ml) for 24 h. Where indicated the cells were treated with the v6 specific peptide (human v6 5mer, 10mer, 14mer) or control peptide prior to induction with HGF for 30 min. Pictures were made using phase contrast microscopy. Magnification 40×.
A scatter assay was performed additionally. HT29 colon cancer cells were grown in medium containing 10% FCS. One day after seeding, the cells were starved. On the third day, the cells were induced with HGF (10 ng/ml) and pre-incubated with either no peptide, ctrl-peptides (SEQ ID No.: 15), non-pegylated v6-peptides (SEQ ID No.: 11) or the pegylated peptides, namely PEG-rat control peptide and PEG-rat CD44v6 peptide.
Scattering of HT29 cells was determined in 24-well plates. First, 4×10^5 cells were seeded at 37° C.; the cells were either left untreated or 48 h later treated with HGF (50 ng/ml) for 24 h or with PEGylated or non-PEGylated peptides (100 ng/ml) prior to HGF induction for 30 min.

[4] = system: BSp73ASs6 cells; assay: Rat syngeneic model, subcutaneous BSp73ASs6 tumor, metastasis formation; type: in vivo; settings: 200 μg per injection, intra-tumoral or intravenously three times a week, start after one week of tumor growth
Experimental: In the case of the rat syngeneic model, 1×10^6 pancreatic cells (BSp73AS and its transfectants) were subcutaneously injected into the right posterior flank of the animals. Tumors developed for four weeks. During this time period animals injected with BSp73ASs6 cells expressing Met-shRNA or control-shRNA received doxycycline in the drinking water. At the end of the experiment, primary tumors were isolated. Lungs and axillary lymph nodes were analyzed. The tissues were incubated for 24 h in a zinc-fixative (0.5 g calcium acetate, 5.0 g zinc acetate, 5.0 g zinc chloride, in 1 L 0.1 M Tris pH 7.4) and embedded in paraffin for further analysis. In case of peptide or antibody treatment tumors developed for one week before the first treatment. Where indicated, animals received 200 μg of peptide or antibody per injection three times per week for four weeks. Tumor growth was monitored weekly using a caliper. Animals were killed at day 28 or 30 after start of the treatment.
For histo-morphological analysis paraffin-embedded sections of lungs were stained with hematoxylin and eosin and periodic acid-Schiff (H&E or PAS). Serial sections of the whole tissue blocks were examined by analyzing slices every 20 μm; in each slice, the presence and the extension of the metastatic deposit was assessed, according to the procedure routinely used by pathologists to evaluate the presence of micro-metastases.

[5] = system: BSp73ASs6 cells; assay: Apoptosis in established lung metastases (cleaved Caspase-3, cleaved Caspase-8), BSp73ASs6 rat model; type: in vivo; settings: injection every second day
Experimental: 7 μm thick paraffin sections were deparaffinized and rehydrated. For P-Met staining antigen unmasking was achieved by boiling the slides in 1 mM EDTA pH 8.0 followed by incubation for 15 minutes at a sub-boiling temperature, for CD31 staining the sections were treated with Proteinase K (8 μg/ml) for 10 min at 37° C. For immunofluorescence staining of P-Met, unspecific binding was blocked with 5% goat serum (DAKO, Glostrup, Denmark) (diluted in 1×PBS/0.3% Triton X-100) for 60 minutes. In the case of immunohistochemistry, endogenous peroxidases were at first blocked with 3% H2O2 in PBS followed by incubation with biotin blocking system (Dako, Glostrup, Denmark) and then unspecific binding was inhibited by incubation with 5% FCS in PBS. The sections were incubated with the P-Met antibody (D26, dilution 1:50 in 1×PBS/1% BSA/0.3% Triton X-100), Met antibody (C-28, dilution 1:50), GFP antibody (sc-101525, dilution 1:50) or CD31 antibody (5 μg/ml) over night or VFF18 (5 μg/ml) o/n at 4° C. After washing in PBS the sections were incubated with Alexa Fluor R 546 goat anti-rabbit (in case of immunofluorescence P-Met and Met staining, dilution 1:500) or a biotinylated secondary antibody (for immunohistochemical stainings rabbit anti-rat antibody for VFF18 and CD31, goat anti-rabbit for P-Met, cleaved Caspase-3 and cleaved Caspase-8 and rabbit anti-mouse for GFP, dilution 1:500) for 45 minutes. For DAB (3,3′-diaminobenzidine) staining the sections were treated with a streptavidin-peroxidase conjugate (Dako, Glostrup, Denmark) and developed with DAB substrate system (3,3′-diaminobenzidine; Biozol, Eching, Germany). For immunofluorescence DAPI was used for nuclear staining.
One hypothesis for the disappearance of metastases is that the peptides induce apoptosis of CD44v6-expressing metastatic cells in the secondary organs. In order to test this hypothesis, the experiment described above using the BSp73ASs6 cells was repeated. The cells were injected subcutaneously in syngeneic rats and the tumor was allowed to develop for three weeks. After that time the animals were separated in two groups of 10 animals that were injected either with the specific rat CD44v6 peptide or with the control peptide (mouse) every second day. One day following each injection of the peptide, the lungs of one animal were removed and apoptosis was measured using an antibody that detects the cleaved form of Caspase 3. […] Twelve days after injection of the CD44v6 peptide, less apoptosis was observed. […] From these experiments, it is concluded that the CD44v6 peptide induces apoptosis of metastatic cells.

DOTA-cy[KRWHE] [cycl 5 mer]
reduction of tumor size, ranking (side-by-side comparison) [1]: strongest reduction of tumor size
variability in the individual tumor size within the group [1]: low variability
metastatic spreading to the liver (side-by-side comparison) [1]: complete inhibition of metastasis

PEG-NEWQG [PEG-rat CD44v6 peptide, rat CD44v6 5mer pegylated at the N-terminal]
HGF induced Met-phosphorylation and Erk signaling ([2]; ASs6 cells, peptides with 2000 dalton PEG-chain, 150 nM 10 min before HGF 10 ng/ml (FIG. 10)): HGF completely failed to induce Met-phosphorylation and to activate Erk signaling
Inhibition of ERK, pegylated vs. non-pegylated peptides ([2]; BSp73ASs6 cells): even more efficient
HGF dependent activation of Met and ERK ([2]; pegylated rat 5mer, 10 min pre-incubation, HGF 10 ng/ml 5 min (FIGS. 9, 10)): efficient in inhibiting HGF dependent activation of Met and ERK
HGF induced clustering / scattering of HT29 cells (FIG. 11) [3]: lead to dissociation and migration of cells away from these cell cluster
HGF induced scattering of HT29 cells ([3]; PEGylated peptides 100 ng/ml prior to HGF 50 ng/ml (Example 5, FIG. 11)): strongly inhibited

N=C(N)NCCC[C@H](NC(=O)[C@@H](N)CC(N)=O)C(=O)N[C@@H](Cc1c[nH]c2ccccc12)C(=O)N[C@@H](Cc1c[nH]cn1)C(=O)N[C@@H](CCC(=O)O)C(=O)O [human 5mer, NRWHE] (H-NRWHE-OH; N-terminus and C-terminus assumed)
side effects in the animals ([1]; 200 μg per injection i.p. three times per week): did not lead to side effects in the animals

mouse control peptides: mouse CD44v6 peptide used as control in the rat syngeneic model (WFQNGWQGKNP) [reference compound]
metastasis (axillary lymph nodes, lungs) [4]: numerous metastases were detected in the lungs
apoptosis (cleaved Caspase 3) in lung metastases [5]: No apoptosis at all was detected
lung metastasis at day twenty-two [5]: metastatic spreading was evident in the lungs

NAAAG [ctrl-peptides, reference compound]
HGF induced clustering / scattering of HT29 cells (FIG. 11) [3]: not control peptides lead to dissociation and migration

cy[KGNRWHEG] (not fully specified (bridges); printed as cy[KGNRWHEG]; also: cyclic, ring closure not given here) [cycl. 8 mer]
reduction of tumor size, ranking (side-by-side comparison) [1]: strongest reduction of tumor size
variability in the individual tumor size within the group [1]: low variability
metastatic spreading to the liver (side-by-side comparison) [1]: complete inhibition of metastasis
metastatic spreading at 2 and 20 μg per injection ([1]; 2 and 20 μg per injection, three times per week): blocked metastatic spreading
size / growth of the primary tumor (dose reduction study) ([1]; three injections per week for 3 weeks, compared to control groups (FIG. 22C)): drastic effect on growth of the primary tumor

Myr-KEQWFGNRWHEGYR (Myristoyl-KEQWFGNRWHEGYR) [Myristoyl-14-mer]
tumor growth compared to the control peptide (side-by-side comparison) [1]: no inhibitory effect on tumor growth

PEG2000-KEQWFGNRWHEGYR-OH [PEG2000 14-mer]
reduction of tumor size, ranking (side-by-side comparison) [1]: strongest reduction of tumor size
variability in the individual tumor size within the group [1]: low variability
metastatic spreading to the liver (side-by-side comparison) [1]: decrease of metastatic spreading
tumor growth compared to the control peptide (side-by-side comparison) [1]: significant reduction in tumor growth

DOTA-KEQWFGNRWHEGYR ({DOTA}-KEQWFGNRWHEGYR; not fully specified (residue 14)) [DOTA CD44v6-14 [r^14]]
metastatic spreading to the liver (side-by-side comparison) [1]: complete inhibition of metastasis

PEG840-KEQWFGNRWHEGYR-OH [PEG840 14-mer]
metastatic spreading to the liver (side-by-side comparison) [1]: decrease of metastatic spreading
tumor growth compared to the control peptide (side-by-side comparison) [1]: significant reduction in tumor growth

DOTA-keqwfGNRWHEGyr [DOTA CD44v6-14 [daa7]]
metastatic spreading to the liver (side-by-side comparison) [1]: decrease of metastatic spreading

Myr-Y-cy[KGNRWHEG] (Myristoyl-YKGNRWHEG; not fully specified (bridges); printed as Myr-Y-cy[KGNRWHEG]; also: cyclic, ring closure not given here) [Myr-Y-cycl 8 mer]
metastatic spreading to the liver (side-by-side comparison) [1]: decrease of metastatic spreading
